Experimental data published in patent US12187759B2, “TLR7 agonists” (Primmune Therapeutics, Inc., priority 2019, dated 2025).
Where two headings read alike, the source gives them in different places.

Legend:
[1] = molecular target: T1, human TLR7 (Homo sapiens, UniProt Q9NYK1); experiment: TLR7 reporter cell assay (HEK293 cells stably expressing human TLR7 with NF-κB-driven SEAP reporter); format: cell-based; conditions: for EC50: fit of SEAP dose response, ymax from 28.5 μM resiquimod
T1 construct: host or cells: HEK293
T1 sequence (Q9NYK1 27-1049): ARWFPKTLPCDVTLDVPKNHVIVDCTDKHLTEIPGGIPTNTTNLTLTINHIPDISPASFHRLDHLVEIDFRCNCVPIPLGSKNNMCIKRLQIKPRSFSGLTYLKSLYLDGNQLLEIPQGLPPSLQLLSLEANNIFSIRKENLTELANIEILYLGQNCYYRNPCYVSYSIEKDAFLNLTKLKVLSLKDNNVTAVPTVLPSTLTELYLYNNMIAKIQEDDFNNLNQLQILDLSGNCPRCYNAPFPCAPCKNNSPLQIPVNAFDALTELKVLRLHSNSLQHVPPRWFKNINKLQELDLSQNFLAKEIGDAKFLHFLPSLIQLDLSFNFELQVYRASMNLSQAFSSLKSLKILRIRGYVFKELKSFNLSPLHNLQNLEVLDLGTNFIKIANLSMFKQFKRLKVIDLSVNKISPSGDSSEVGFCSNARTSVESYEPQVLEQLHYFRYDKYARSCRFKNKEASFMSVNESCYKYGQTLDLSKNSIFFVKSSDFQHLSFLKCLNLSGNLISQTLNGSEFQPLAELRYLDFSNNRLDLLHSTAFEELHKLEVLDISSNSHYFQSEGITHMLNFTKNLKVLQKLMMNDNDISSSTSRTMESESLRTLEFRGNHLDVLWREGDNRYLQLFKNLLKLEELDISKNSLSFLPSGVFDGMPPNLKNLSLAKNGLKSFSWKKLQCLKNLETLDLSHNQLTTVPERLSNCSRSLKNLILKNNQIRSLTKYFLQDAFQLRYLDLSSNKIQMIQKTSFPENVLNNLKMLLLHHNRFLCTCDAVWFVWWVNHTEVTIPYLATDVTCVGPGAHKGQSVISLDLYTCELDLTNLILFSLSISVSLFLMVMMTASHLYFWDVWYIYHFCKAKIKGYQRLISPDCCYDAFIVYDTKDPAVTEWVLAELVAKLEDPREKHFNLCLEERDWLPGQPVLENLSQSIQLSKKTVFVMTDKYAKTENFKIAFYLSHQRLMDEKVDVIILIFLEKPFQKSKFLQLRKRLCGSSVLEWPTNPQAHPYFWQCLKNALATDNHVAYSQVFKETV
Source text: The engagement of TLRs by cognate ligands triggers downstream signaling cascades, leading to the activation of NF-κB and other transcription factors which initiate various immunomodulatory effects. The human embryonic kidney cell line, HEK293, is essentially non-responsive to TLR agonists, but ectopic expression of TLRs in these cells allows cognate agonists to activate endogenous NF-κB. Accordingly, the HEK293-TLR-NF-κB inducible reporter system is used to assay TLR agonists.
HEK293 cell lines stably expressing human TLR7 or TLR8 together with an NF-κB-driven-secreted alkaline phosphatase (SEAP) reporter were invented at InvivoGen (San Diego, California, USA) and used to assess compounds of the present invention for TLR7 and TLR8 agonist activities. Cells were seeded at 2-5×10^4 cells/well in 96 well plates (200 μl/well) and treated with various concentrations of compound (10 μl) for 15-24 hours. SEAP activity was determined by measuring OD at 650 nm; the media used to culture the cell lines contains the reagents required for SEAP detection. The EC50 values in Table 1 are calculated from fitting the dose response of measured SEAP activity for each compound to the following equation: Y=ymax*c^nh/(EC50^nh+c^nh)+blank where Y is the experimentally measured OD650 at concentration c of test article, blank is the observed OD650 in the absence of TLR7 agonist, ymax is the difference between the measured OD650 in the presence of 28.5 μM resiquimod and the blank and values of EC50 and nh are determined by nonlinear least squares analysis. Resiquimod is a known TLR7 and TLR8 agonist.
Compound A is 5-amino-3-((2R,3R,5S)-3-hydroxy-5-((S)-1-hydroxypropyl)tetrahydrofuran-2-yl)thiazolo[4,5-d]pyrimidine-2,7(3H,6H)-dione)

[2] = system: hPBMCs (Human Peripheral Blood Mononuclear Cells); experiment: Induction of interferon-α in hPBMCs in vitro; format: cell-based; conditions: for Emax / minimal effective concentration: Homo sapiens, PBMC; for Emax: 24 h, peak IFNα2a as percentage of peak response of standard 2-Amino-7-(cyclopropylmethyl)-9-B-D-xylofuranosyl-7,9-dihydro-1H-purine-6,8-dione, averaged across donors, read-out: IFNrmax, Relative Maximal IFNα2a Production (%); for minimal effective concentration: minimal effective concentration for interferon-α production (generally at least 80 pg/ml above baseline), geometric mean across at least three donors, 24 hours, read-out: Weighted MEC
Description: Treatment of hPBMCs with a TLR7 agonist typically induces some production of interferon-α as well as lesser amounts of a variety of other cytokines and chemokines. A typical experiment uses hPBMCs isolated from a healthy donor and placed in replicate cell culture wells; typically 1.0-7.5×10^6 cells are placed in each well. A test compound is added and the cells are cultured for 24 hours at 37° C. in a humidified atmosphere containing 5% CO2 post-addition; untreated controls are included. Secreted interferon-α production is measured using an a multisubtype interferon-α ELISA kit like those from PBL Assay Sciences or specifically as IFNα2a as part of a panel of cytokines and chemokines using luminex methodologies.
The minimal effective concentration (MEC) is the minimum concentration in a dose response curve where a significant increase in interferon-α production (generally at least 80 pg/ml) is observed above baseline. MEC values for each compound are determined for at least three donors. The weighted MEC for each compound is the geometric mean of all individual MECs across all donors. Concentrations tested typically consist of a two-fold dilution series starting at 100 μM. In the calculation of weighted MEC, any individual MEC value greater the highest concentration tested is arbitrarily set to two times the highest concentration tested unless all MECs for a compound exceed this value. The maximal amount of IFNα2a for each donor is determined from dose dependence for each compound.
In order to normalize for variation in each hPBMC preparation, these values are first transformed by expressing as a percentage of peak response measured with a standard (2-Amino-7-(cyclopropylmethyl)-9-B-D-xylofuranosyl-7,9-dihydro-1H-purine-6,8-dione) and then averaging the results across all donors, this average referred to as IFNrmax.
IFNmax is the maximum amount of IFN observed at any concentration across the evaluated concentration range. MEC and IFNmax values for three select compound are shown for three donors (Table 3). The range of tested concentrations were 0.625-5 μM for Imiquimod, 3.125-100 μM for both Compound A and Compound 1, 12.5-100 μM for Compound 2.

[3] = HEK293, 500 μM compound, SEAP activity (OD 650 nm) relative to 28.5 μM resiquimod, 15-24 hours, read-out: Response at 500 μM Compound as a Percent of Resiquimod Response
[4] = HEK293, read-out: Response at 500 μM Compound as a Percent of Resiquimod Response

SMILES | Emax at 500 µM [1, 3] [%] | EC50 ([1]; 15-24 hours) [µM] | Emax [2] [%] | minimal effective concentration [2] [µM] | Emax at 500 µM [1, 4] [%] | also measured
CCCCn1c(=O)n([C@@H]2O[C@H]([C@@H](O)CC)[C@H](F)[C@H]2O)c2nc(N)[nH]c(=O)c21 [Compound 30, 2-Amino-7-butyl-9-((2R,3S,4R,5R)-4-fluoro-3-hydroxy-5-((S)-1-hydroxypropyl)tetrahydrofuran-2-yl)-7,9-dihydro-1H-purine-6,8-dione] | 87 | 94 | 347 | 1.6 | – | –
C#CCn1c(=O)n([C@@H]2O[C@H]([C@H](C)O)C[C@H]2O)c2nc(N)[nH]c(=O)c21 [Compound 9, 2-Amino-9-((2R,3R,5S)-3-hydroxy-5-((S)-1-hydroxyethyl)tetrahydrofuran-2-yl)-7-(prop-2-yn-1-yl)-7,9-dihydro-1H-purine-6,8-dione] | 58 | 182 | 191 | 6.2 | – | –
C#CCn1c(=O)n([C@@H]2O[C@H]([C@@H](O)C(F)(F)F)C[C@H]2O)c2nc(N)[nH]c(=O)c21 [Compound 10, 2-Amino-9-((2R,3R,5S)-3-hydroxy-5-((R)-2,2,2-trifluoro-1-hydroxyethyl)tetrahydrofuran-2-yl)-7-(prop-2-yn-1-yl)-7,9-dihydro-1H-purine-6,8-dione] | – | 311 | – | – | 72 | –
CCCCn1c(=O)n([C@@H]2O[C@H]([C@@H](O)C(F)(F)F)C[C@H]2O)c2nc(N)[nH]c(=O)c21 [Compound 31, 2-Amino-7-butyl-9-((2R,3R,5S)-3-hydroxy-5-((R)-2,2,2-trifluoro-1-hydroxyethyl)tetrahydrofuran-2-yl)-7,9-dihydro-1H-purine-6,8-dione] | 78 | 210 | 71 | 6.3 | – | –
Nc1nc2c(c(=O)[nH]1)n(CCC(F)(F)F)c(=O)n2[C@@H]1O[C@H]([C@@H](O)C(F)(F)F)C[C@H]1O [Compound 28, 2-Amino-9-((2R,3R,5S)-3-hydroxy-5-((R)-2,2,2-trifluoro-1-hydroxyethyl)tetrahydrofuran-2-yl)-7-(3,3,3-trifluoropropyl)-7,9-dihydro-1H-purine-6,8-dione] | 47 | 519 | 105 | 9.9 | – | –
C#CCn1c(=O)n([C@@H]2O[C@H](C(=O)NC)C[C@H]2O)c2nc(N)[nH]c(=O)c21 [Compound 42, (2S,4R,5R)-5-(2-Amino-6,8-dioxo-7-(prop-2-yn-1-yl)-1,6,7,8-tetrahydro-9H-purin-9-yl)-4-hydroxy-N-methyltetrahydrofuran-2-carboxamide] | < 5 | – | ≤ 10 | > 50 | – | –
C=C=Cn1c(=O)n([C@@H]2O[C@H]([C@H](O)CC)C[C@H]2O)c2nc(N)[nH]c(=O)c21 [Compound 3, 2-amino-9-((2R,3R,5S)-3-hydroxy-5-((R)-1-hydroxypropyl)tetrahydrofuran-2-yl)-7-(propa-1,2-dien-1-yl)-7,9-dihydro-1H-purine-6,8-dione] | – | – | – | – | < 5 | –
C#CCn1c(=O)n([C@@H]2O[C@@H](C(=O)CC)C[C@H]2O)c2nc(N)[nH]c(=O)c21 [Compound 38, 2-Amino-9-((2R,3R,5R)-3-hydroxy-5-propionyltetrahydrofuran-2-yl)-7-(prop-2-yn-1-yl)-7,9-dihydro-1H-purine-6,8-dione] | – | – | – | – | < 5 | –
C#CCn1c(=O)n([C@@H]2O[C@H](C(=O)CC)C[C@H]2O)c2nc(N)[nH]c(=O)c21 [Compound 37, 2-Amino-9-((2R,3R,5S)-3-hydroxy-5-propionyltetrahydrofuran-2-yl)-7-(prop-2-yn-1-yl)-7,9-dihydro-1H-purine-6,8-dione] | – | 462 | – | – | 40 | –
C#CCn1c(=O)n([C@@H]2O[C@H]([C@H](O)CC)[C@H](F)[C@H]2O)c2nc(N)[nH]c(=O)c21 [Compound 12, 2-Amino-9-((2R,3S,4R,5R)-4-fluoro-3-hydroxy-5-((R)-1-hydroxypropyl)tetrahydrofuran-2-yl)-7-(prop-2-yn-1-yl)-7,9-dihydro-1H-purine-6,8-dione] | – | > 500 | – | – | 6 | –
C#CCn1c(=O)n([C@@H]2O[C@H]([C@H](O)C(F)(F)F)C[C@H]2O)c2nc(N)[nH]c(=O)c21 [Compound 11, 2-Amino-9-((2R,3R,5S)-3-hydroxy-5-((S)-2,2,2-trifluoro-1-hydroxyethyl)tetrahydrofuran-2-yl)-7-(prop-2-yn-1-yl)-7,9-dihydro-1H-purine-6,8-dione] | – | – | – | – | < 5 | –
CC(C)Cn1cnc2c(N)nc3ccccc3c21 [Imiquimod, reference compound] | – | – | – | – | – | Donor 1 MEC ([2]; Donor 1, interferon-α production): 5 µM; Donor 1 IFNmax ([2]; Donor 1, maximum IFN at any concentration of the evaluated range): 793 pg/mL; Donor 2 MEC ([2]; Donor 2, interferon-α production): 5 µM; Donor 2 IFNmax ([2]; Donor 2, maximum IFN at any concentration of the evaluated range): 193 pg/mL; Donor 3 MEC ([2]; Donor 3, interferon-α production): 1.25 µM; Donor 3 IFNmax ([2]; Donor 3, maximum IFN at any concentration of the evaluated range): 1350 pg/mL
C#CCn1c(=O)n([C@@H]2O[C@H](CO)[C@@H](F)[C@H]2O)c2nc(N)[nH]c(=O)c21 [Compound B, 2-Amino-9-((2R,3S,4S,5R)-4-fluoro-3-hydroxy-5-(hydroxymethyl)tetrahydrofuran-2-yl)-7-(prop-2-yn-1-yl)-7,9-dihydro-1H-purine-6,8-dione, reference compound] | – | – | 260 | 17.9 | – | –
